Laboratory results taken from BigSolDB 2.1.

C=CC(=O)N1CCC[C@@H](n2nc(-c3ccc(Oc4ccccc4)cc3)c3c(N)ncnc32)C1
solubility (mole fraction) (in ethanol, 298.15 K): 0.00312 | solubility (mole fraction) (in ethanol, 303.15 K): 0.00356 | solubility (mole fraction) (in ethanol, 308.15 K): 0.00396 | solubility (mole fraction) (in ethanol, 313.15 K): 0.00447 | solubility (mole fraction) (in ethanol, 323.15 K): 0.00551 | solubility (mole fraction) (in water, 298.15 K): 1.42e-07 | solubility (mole fraction) (in water, 303.15 K): 2.22e-07 | solubility (mole fraction) (in water, 308.15 K): 3.12e-07 | solubility (mole fraction) (in water, 313.15 K): 4.29e-07 | solubility (mole fraction) (in water, 323.15 K): 7.77e-07
